ChEMBL document CHEMBL3400061, “Structure-activity relationships of IKM-159: Diverted synthesis and biological evaluation of a series of C5-oxy analogs” (Bioorg Med Chem Lett, 2015)
The source made the active and inactive calls. The rule behind the calls is not given here.

What was measured:
Assay type in all cases: functional, organism-based
Mus musculus [1] = test: Suppression of voluntary movements in ddY mouse at 100 ug, icv
Mus musculus [2] = test: Induction of loss of body motion in ddY mouse at 100 ug, icv
Mus musculus [3] = test: Induction of loss of body flaccidness in ddY mouse at 100 ug, icv
Mus musculus [4] = test: Effect on behavior in ddY mouse at 100 ug, icv

SMILES	Activity (Mus musculus [4])	also measured
O=C(O)C[C@@]12O[C@H]3C=CCO[C@H]3[C@@H]1C(=O)N[C@H]2C(=O)O		Activity (Mus musculus [1]): Active
O=C(O)C[C@@]12O[C@H]3C=CCN[C@H]3[C@@H]1C(=O)N[C@H]2C(=O)O		Activity (Mus musculus [2]): Active; Activity (Mus musculus [3]): Active
O=C(O)C[C@@]12O[C@H]3CC(=O)O[C@H]3[C@@H]1C(=O)N[C@H]2C(=O)O	inactive	
O=C(O)C[C@@]12O[C@H]3C=CC(=O)O[C@H]3[C@@H]1C(=O)N[C@H]2C(=O)O	inactive	
C=C[C@@H]1O[C@@]2(CC(=O)O)[C@H](C(=O)O)NC(=O)[C@H]2[C@@H]1O	inactive	
